Measured values from patent US20050054589A1, “Method for treating diseases using HSP90-inhibiting agents in combination with antibiotics” (Kosan Biosciences, Inc., priority 2003, published 2005).

What was measured:
[1] = clinical trials; twice-weekly regimen; cited from earlier work
[2] = tested on: SKBr cells (human breast cancer cells); experiment: Cell viability (MTS) drug combination assay, combination index, SKBr-3 cells; assay type: cell-based; conditions: constant ratio of IC50s, CI<1 synergism
Description: (§1) Human colon adenocarcinoma cell line, DLD-1, and human breast adenocarcinoma cell line, SKBr-3, were obtained from American Type Culture Collection (manassas, VA). DLD-1 cells were maintained in RPMI 1640 medium supplemented with 10% fetal bovine serum, and SKBr-3 cells were cultured in McCoy's 5a medium supplemented with 10% fetal bovine serum. 17-DMAG and 17-AAG were obtained using published procedures. Other cytotoxic agents were purchased commercially from suppliers such as Sigma Chemical Co. (St. Louis, Mo.) and Sequoia Research Products (Oxford, UK).
(§2) Cells were seeded in duplicate in 96-well microtiter plates at a density of 5,000 cells per well and allowed to attach overnight. […] Cell viability was determined using the MTS assay (Promega). For the drug combination assay, cells were seeded in duplicate in 96-well plates (5,000 cells/well). […] Cell viability was determined by the MTS assay.
(§3) Synergism, additivity or antagonism was determined by median effect analysis using the combination index (CI) calculated using Calcusyn (Biosoft, Cambridge, UK). […] The quantities [Dx]1 and [Dx]2 represent the concentrations of the first and second drug, respectively, that when used alone provide a response of x % in the assay. […] The “enhancing” effect of two drugs can also be determined.

[3] = tested on: DLD-1 cells (human colorectal cancer cells); conditions: constant ratio of IC50s, CI<1 synergism, CI=1 additivity, CI>1 antagonism
Description: as §1, §2, §3

[4] = 17-AAG 24 h before antibiotic, then 48 h
[5] = antibiotic alone 24 h, then 17-AAG for 48 h

**Q.** Which MTD [1] does the source give for `C=CCNC1=C2C[C@@H](C)C[C@H](OC)[C@H](O)[C@@H](C)/C=C(\C)[C@H](OC(N)=O)[C@@H](OC)/C=C\C=C(/C)C(=O)NC(=CC1=O)C2=O` [17-AAG, 17-(allylamino)-17-desmethoxygeldanamycin] here?
**A.** about 220 mg/m2

**Q.** Which results are given for `COc1cccc2c1C(=O)c1c(O)c3c(c(O)c1C2=O)C[C@@](O)(C(=O)CO)C[C@@H]3O[C@H]1C[C@H](N)[C@H](O)[C@H](C)O1` [Doxorubicin, doxorubicin]?
**A.** CI value, combination with 17-AAG, 17-AAG Pre-Administration [2, 4]: 0.81 ± 0.05; CI value, combination with 17-AAG, 17-AAG Post-Administration [2, 5]: 0.45 ± 0.12; CI value, combination with 17-AAG, 17-AAG Pre-Administration [3, 4]: 0.58 ± 0.15; CI value, combination with 17-AAG, 17-AAG Post-Administration [3, 5]: 0.82 ± 0.09
